Data: patent US12145929B2, “Piperidine derivative and pharmaceutical composition for inhibiting autotaxin comprising same” (NEXTGEN BIOSCIENCE CO., LTD., priority 2021, dated 2024)

target: human Autotaxin protein (Homo sapiens, UniProt Q13822); test: Evaluation of inhibitory activity against human Autotaxin protein (18:1 LysoPC substrate, choline assay kit, absorbance 570 nm); format: biochemical; settings: compound at 500 nM, 2 hours at 37° C.
Experimental: The solution of each synthesized compound (80 uM, 100% dimethyl sulfoxide) was sequentially diluted 5 times with dimethyl sulfoxide to prepare 6 concentrations. Each concentration of compound was diluted two-fold with 1× test buffer (50 mM Tris-Cl (pH 8.0), 5 mM KCl, 1 mM CaCl2), 1 mM MgCl2, 140 mM NaCl, deionized water, 1 mg/mL BSA), and 1 uL (1.25% dimethyl sulfoxide) of this diluted mixture was dispensed into each well of a 96 well clear round bottom plate. 9 uL of 1× test buffer were added to each well, followed by the addition of 20 uL of 240 nM human Autotaxin protein (buffer: 50 mM Tris-HCl, pH 8.0, with 150 mM sodium chloride and 20% glycerol). 10 uL of sonicated 360 uM 18:1 LysoPC (diluted with 1× test buffer) were added to each well. The reaction was performed for 2 hours in a shaking incubator at 37° C., and a secondary reaction mixture (choline assay kit, KA1662) (65 uL of 1× test buffer: 1 uL of choline oxidase: 1 uL of dye probe) was prepared. 60 uL of the secondary reaction mixture were added to the reaction plate and reacted on a shaker for 30 minutes. Using a SpectraMax iD3 microplate reader, the absorbance was measured at a wavelength of 570 nm. The percentage of inhibition activity (% inhibition) was calculated by the Formula: (1−Absorbancetestgroup/Absorbancecontrol group)×100.

Row | SMILES | inhibition at 0.5 µM [%] | inhibition (%) at 500 nM [%]
1 | Cc1nn[nH]c1C1CCN(c2nnc(-c3cnc(NC4Cc5cc(F)c(F)cc5C4)nc3)o2)CC1 [Example 29, N-(5,6-difluoro-2,3-dihydro-1H-inden-2-yl)-5-(5-(4-(4-methyl-1H-1,2,3-triazol-5-yl)piperidin-1-yl)-1,3,4-oxadiazol-2-yl)pyrimidin-2-amine] | 90.8 | –
2 | O=C(/C=C/c1cnc(NC2Cc3cc(F)c(F)cc3C2)nc1)N1CCC(c2cnn[nH]2)CC1 [Example 30, (E)-1-(4-(1H-1,2,3-triazol-5-yl)piperidin-1-yl)-3-(2-((5,6-difluoro-2,3-dihydro-1H-inden-2-yl)amino)pyrimidin-5-yl)prop-2-en-1-one] | 97.8 | –
3 | c1ccc(Cn2nncc2C2CCN(c3cnc(-c4cnc(NC5Cc6ccccc6C5)nc4)o3)CC2)cc1 [Example 31, 5-(5-(4-(1-Benzyl-1H-1,2,3-triazol-5-yl)piperidin-1-yl)oxazol-2-yl)-N-(2,3-dihydro-1H-inden-2-yl)pyrimidin-2-amine] | 8.1 | –
4 | CN(c1ncc(-c2nnc(N3CCC(c4cnn[nH]4)CC3)o2)cn1)C1Cc2cc(F)c(F)cc2C1 [Example 32, 5-(5-(4-(1H-1,2,3-triazol-5-yl)piperidin-1-yl)-1,3,4-oxadiazol-2-yl)-N-(5,6-difluoro-2,3-dihydro-1H-inden-2-yl)-N-methylpyrimidin-2-amine] | 34.3 | –
5 | Cn1nncc1C1CCN(c2nnc(-c3cnc(NC4Cc5cc(F)c(F)cc5C4)nc3)o2)CC1 [Example 33, N-(5,6-difluoro-2,3-dihydro-1H-inden-2-yl)-5-(5-(4-(1-methyl-1H-1,2,3-triazol-5-yl)piperidin-1-yl)-1,3,4-oxadiazol-2-yl)pyrimidin-2-amine] | 78.4 | –
6 | Cn1cc(C2CCN(c3nnc(-c4cnc(NC5Cc6cc(F)c(F)cc6C5)nc4)o3)CC2)nn1 [Example 34, N-(5,6-difluoro-2,3-dihydro-1H-inden-2-yl)-5-(5-(4-(1-methyl-1H-1,2,3-triazol-4-yl)piperidin-1-yl)-1,3,4-oxadiazol-2-yl)pyrimidin-2-amine] | 17.3 | –
7 | c1ccc2c(c1)CC(Nc1ncc(C3CC(N4CCC(c5cnn[nH]5)CC4)=NO3)cn1)C2 (stereo not drawn) [Example 35, N-indan-2-yl-5-[3-[4-(1H-triazol-5-yl)-1-piperidyl]-4,5-dihydroisoxazol-5-yl]pyrimidin-2-amine] | 96 | –
8 | Fc1cc2c(cc1F)CC(Nc1ncc(C3CC(N4CCC(c5cnn[nH]5)CC4)=NO3)cn1)C2 (stereo not drawn) [Example 37, N-(5,6-difluoroindan-2-yl)-5-[3-[4-(1H-triazol-5-yl)-1-piperidyl]-4,5-dihydroisoxazol-5-yl]pyrimidin-2-amine] | – | 93.2

Now from value to compound, other results behind:

Row | inhibition at 0.5 µM [%] | SMILES | inhibition (%) at 500 nM [%]
9 | 53.4 | c1ccc2c(c1)CC(Nc1ncc(-c3cc(N4CCC(c5cnn[nH]5)CC4)no3)cn1)C2 [Example 36, 5-(3-(4-(1H-1,2,3-triazol-5-yl)piperidin-1-yl)isoxazol-5-yl)-N-(2,3-dihydro-1H-inden-2-yl)pyrimidin-2-amine] | –
10 | 53.2 | Fc1cc2c(cc1F)CC(Nc1ncc(-c3cc(N4CCC(c5cnn[nH]5)CC4)no3)cn1)C2 [Example 38, 5-(3-(4-(1H-1,2,3-triazol-5-yl)piperidin-1-yl)isoxazol-5-yl)-N-(5,6-difluoro-2,3-dihydro-1H-inden-2-yl)pyrimidin-2-amine] | –
11 | 97.2 | Fc1ccc2c(c1)CC(Nc1ncc(C3CC(N4CCC(c5cnn[nH]5)CC4)=NO3)cn1)C2 (stereo not drawn) [Example 39, 5-(3-(4-(1H-1,2,3-triazol-5-yl)piperidin-1-yl)-4,5-dihydroisoxazol-5-yl)-N-(5-fluoro-2,3-dihydro-1H-inden-2-yl)pyrimidin-2-amine] | –
12 | 68.5 | Fc1ccc2c(c1)CC(Nc1ncc(-c3cc(N4CCC(c5cnn[nH]5)CC4)no3)cn1)C2 (stereo not drawn) [Example 40, 5-(3-(4-(1H-1,2,3-triazol-5-yl)piperidin-1-yl)isoxazol-5-yl)-N-(5-fluoro-2,3-dihydro-1H-inden-2-yl)pyrimidin-2-amine] | –
